Data on ten cell lines can be found in the supplement of paper PMC10307832.

What all share (assay): relative viability (nuclei count vs DMSO), 5 days (fraction); higher = more cells survive
Compound in the test “Alisertib + Olaparib”: COc1cc(Nc2ncc3c(n2)-c2ccc(Cl)cc2C(c2c(F)cccc2OC)=NC3)ccc1C(=O)O [Alisertib] + O=C(c1cc(Cc2n[nH]c(=O)c3ccccc23)ccc1F)N1CCN(C(=O)C2CC2)CC1 [Olaparib] (partner 8 µM)
Put shortly: (§1)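 Five library-drug doses in √10 steps were combined with a fixed anchor-drug dose, or a single drug was given alone, by pin tool to lung cancer cell lines in 1536-well plates the day after seeding. Nuclei were stained and counted after 5 days. Relative viability is the nuclei count in treated wells over that in vehicle wells, taken as the median of duplicate plates.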

Compound in the test “Alisertib + Alpelisib”: COc1cc(Nc2ncc3c(n2)-c2ccc(Cl)cc2C(c2c(F)cccc2OC)=NC3)ccc1C(=O)O [Alisertib] + Cc1nc(NC(=O)N2CCC[C@H]2C(N)=O)sc1-c1ccnc(C(C)(C)C(F)(F)F)c1 [Alpelisib] (partner 2 µM)
Put shortly:
as §1

Compound in the test “Alisertib + Bortezomib”: COc1cc(Nc2ncc3c(n2)-c2ccc(Cl)cc2C(c2c(F)cccc2OC)=NC3)ccc1C(=O)O [Alisertib] + CC(C)C[C@H](NC(=O)[C@H](Cc1ccccc1)NC(=O)c1cnccn1)B(O)O [Bortezomib] (partner 0.002 µM)
Put shortly:
as §1

Compound in the test “Alisertib + Pemetrexed”: COc1cc(Nc2ncc3c(n2)-c2ccc(Cl)cc2C(c2c(F)cccc2OC)=NC3)ccc1C(=O)O [Alisertib] + Nc1nc2[nH]cc(CCc3ccc(C(=O)N[C@@H](CCC(=O)O)C(=O)O)cc3)c2c(=O)[nH]1 [Pemetrexed] (partner 0.2 µM)
In outline: as §1

Take A549: the relative viability with Alisertib + Olaparib (first compound 0.005 µM) stood at 0.317; with Alisertib + Olaparib (first compound 0.01581 µM) it was 0.305; with Alisertib + Olaparib (first compound 0.05 µM), 0.0782; with Alisertib + Olaparib (first compound 0.1581 µM), 0.079; in the test with Alisertib + Olaparib (first compound 0.5 µM), 0.0413; in the test with Alisertib + Alpelisib (first compound 0.005 µM), 0.531. Further, the relative viability with Alisertib + Alpelisib (first compound 0.01581 µM) is 0.333; with Alisertib + Alpelisib (first compound 0.05 µM), 0.144; in the test with Alisertib + Alpelisib (first compound 0.1581 µM) it was 0.059; with Alisertib + Alpelisib (first compound 0.5 µM), 0.0557.

Regarding ABC-1, the relative viability turned out to be 0.279 in the test with Alisertib + Bortezomib (first compound 0.005 µM); 0.269 with Alisertib + Bortezomib (first compound 0.01581 µM); 0.315 with Alisertib + Bortezomib (first compound 0.05 µM); 0.278 in the test with Alisertib + Bortezomib (first compound 0.1581 µM); 0.278 with Alisertib + Bortezomib (first compound 0.5 µM); 0.534 in the test with Alisertib + Olaparib (first compound 0.005 µM). The relative viability amounted to 0.708 in the test with Alisertib + Olaparib (first compound 0.01581 µM); 0.677 with Alisertib + Olaparib (first compound 0.05 µM); 0.555 with Alisertib + Olaparib (first compound 0.1581 µM); 0.432 with Alisertib + Olaparib (first compound 0.5 µM); 0.979 in the test with Alisertib + Alpelisib (first compound 0.005 µM); 0.724 with Alisertib + Alpelisib (first compound 0.01581 µM). The relative viability in the test with Alisertib + Alpelisib (first compound 0.05 µM) stood at 0.929; in the test with Alisertib + Alpelisib (first compound 0.1581 µM), 0.475; in the test with Alisertib + Alpelisib (first compound 0.5 µM) it was 0.223.

As to Calu-6, the relative viability came to 0.89 in the test with Alisertib + Bortezomib (first compound 0.005 µM); 0.57 with Alisertib + Bortezomib (first compound 0.01581 µM); 0.316 with Alisertib + Bortezomib (first compound 0.05 µM); 0.189 in the test with Alisertib + Bortezomib (first compound 0.1581 µM); 0.195 with Alisertib + Bortezomib (first compound 0.5 µM); 0.545 with Alisertib + Olaparib (first compound 0.005 µM). The relative viability in the test with Alisertib + Olaparib (first compound 0.01581 µM) turned out to be 0.385; in the test with Alisertib + Olaparib (first compound 0.05 µM) it was 0.237; in the test with Alisertib + Olaparib (first compound 0.1581 µM), 0.207; with Alisertib + Olaparib (first compound 0.5 µM), 0.13; with Alisertib + Alpelisib (first compound 0.005 µM), 0.771; with Alisertib + Alpelisib (first compound 0.01581 µM), 0.566. In addition, the relative viability in the test with Alisertib + Alpelisib (first compound 0.05 µM) came to 0.249; with Alisertib + Alpelisib (first compound 0.1581 µM), 0.188; with Alisertib + Alpelisib (first compound 0.5 µM), 0.191.

With ChaGo-K-1, the relative viability in the test with Alisertib + Bortezomib (first compound 0.005 µM) was determined as 0.88; with Alisertib + Bortezomib (first compound 0.01581 µM) it was 0.696; with Alisertib + Bortezomib (first compound 0.05 µM), 0.322; in the test with Alisertib + Bortezomib (first compound 0.1581 µM) it was 0.276; with Alisertib + Bortezomib (first compound 0.5 µM), 0.232; with Alisertib + Olaparib (first compound 0.005 µM), 0.355. In addition, the relative viability with Alisertib + Olaparib (first compound 0.01581 µM) is 0.339; with Alisertib + Olaparib (first compound 0.05 µM), 0.174; with Alisertib + Olaparib (first compound 0.1581 µM) it was 0.17; with Alisertib + Olaparib (first compound 0.5 µM), 0.154; with Alisertib + Pemetrexed (first compound 0.005 µM), 0.238; with Alisertib + Pemetrexed (first compound 0.01581 µM), 0.281. Moreover, the relative viability came out at 0.238 in the test with Alisertib + Pemetrexed (first compound 0.05 µM), 0.189 with Alisertib + Pemetrexed (first compound 0.1581 µM) and 0.169 with Alisertib + Pemetrexed (first compound 0.5 µM).

As to EBC-1, the relative viability with Alisertib + Bortezomib (first compound 0.005 µM) is 0.537; in the test with Alisertib + Bortezomib (first compound 0.01581 µM) it was 0.467; with Alisertib + Bortezomib (first compound 0.05 µM) it was 0.239; with Alisertib + Bortezomib (first compound 0.1581 µM), 0.186; in the test with Alisertib + Bortezomib (first compound 0.5 µM) it was 0.162; in the test with Alisertib + Olaparib (first compound 0.005 µM) it was 0.609. Besides, the relative viability with Alisertib + Olaparib (first compound 0.01581 µM) worked out at 0.478; with Alisertib + Olaparib (first compound 0.05 µM), 0.195; in the test with Alisertib + Olaparib (first compound 0.1581 µM) it was 0.216; with Alisertib + Olaparib (first compound 0.5 µM), 0.132; with Alisertib + Alpelisib (first compound 0.005 µM) it was 0.578; with Alisertib + Alpelisib (first compound 0.01581 µM), 0.597. The relative viability with Alisertib + Alpelisib (first compound 0.05 µM) was 0.272; with Alisertib + Alpelisib (first compound 0.1581 µM) it was 0.225; with Alisertib + Alpelisib (first compound 0.5 µM), 0.153.

For IA-LM, the relative viability in the test with Alisertib + Bortezomib (first compound 0.005 µM) stood at 0.635; in the test with Alisertib + Bortezomib (first compound 0.01581 µM) it was 0.578; with Alisertib + Bortezomib (first compound 0.05 µM), 0.465; with Alisertib + Bortezomib (first compound 0.1581 µM) it was 0.195; with Alisertib + Bortezomib (first compound 0.5 µM), 0.0832; with Alisertib + Olaparib (first compound 0.005 µM), 0.671. The relative viability with Alisertib + Olaparib (first compound 0.01581 µM) came to 0.674; with Alisertib + Olaparib (first compound 0.05 µM), 0.596; with Alisertib + Olaparib (first compound 0.1581 µM), 0.449; with Alisertib + Olaparib (first compound 0.5 µM) it was 0.0913; with Alisertib + Alpelisib (first compound 0.005 µM), 0.407; in the test with Alisertib + Alpelisib (first compound 0.01581 µM) it was 0.739. The relative viability with Alisertib + Alpelisib (first compound 0.05 µM) is 0.462; in the test with Alisertib + Alpelisib (first compound 0.1581 µM), 0.247; in the test with Alisertib + Alpelisib (first compound 0.5 µM), 0.0598.

On to LK-2, for which the relative viability in the test with Alisertib + Olaparib (first compound 0.005 µM) was 0.648; with Alisertib + Olaparib (first compound 0.01581 µM) it was 0.56; in the test with Alisertib + Olaparib (first compound 0.05 µM), 0.294; with Alisertib + Olaparib (first compound 0.1581 µM) it was 0.183; with Alisertib + Olaparib (first compound 0.5 µM), 0.109; with Alisertib + Alpelisib (first compound 0.005 µM) it was 1.08. The relative viability in the test with Alisertib + Alpelisib (first compound 0.01581 µM) was 0.878; with Alisertib + Alpelisib (first compound 0.05 µM) it was 0.364; with Alisertib + Alpelisib (first compound 0.1581 µM), 0.299; in the test with Alisertib + Alpelisib (first compound 0.5 µM), 0.268; in the test with Alisertib + Pemetrexed (first compound 0.005 µM), 0.286; with Alisertib + Pemetrexed (first compound 0.01581 µM), 0.236. Further, the relative viability is 0.188 with Alisertib + Pemetrexed (first compound 0.05 µM), 0.141 with Alisertib + Pemetrexed (first compound 0.1581 µM) and 0.148 with Alisertib + Pemetrexed (first compound 0.5 µM).

On to NCI-H358, for which the relative viability in the test with Alisertib + Olaparib (first compound 0.005 µM) was determined as 0.529; with Alisertib + Olaparib (first compound 0.01581 µM), 0.284; in the test with Alisertib + Olaparib (first compound 0.05 µM), 0.117; in the test with Alisertib + Olaparib (first compound 0.1581 µM) it was 0.111; with Alisertib + Olaparib (first compound 0.5 µM), 0.12; with Alisertib + Alpelisib (first compound 0.005 µM) it was 0.753. For the same cell line, the relative viability was 0.584 with Alisertib + Alpelisib (first compound 0.01581 µM); 0.257 with Alisertib + Alpelisib (first compound 0.05 µM); 0.19 with Alisertib + Alpelisib (first compound 0.1581 µM); 0.151 with Alisertib + Alpelisib (first compound 0.5 µM); 0.162 with Alisertib + Pemetrexed (first compound 0.005 µM); 0.165 with Alisertib + Pemetrexed (first compound 0.01581 µM). The relative viability with Alisertib + Pemetrexed (first compound 0.05 µM) was determined as 0.167; with Alisertib + Pemetrexed (first compound 0.1581 µM) it was 0.112; with Alisertib + Pemetrexed (first compound 0.5 µM), 0.0889.

Take NCI-H522: the relative viability in the test with Alisertib + Olaparib (first compound 0.005 µM) came out at 0.604; with Alisertib + Olaparib (first compound 0.01581 µM) it was 0.591; in the test with Alisertib + Olaparib (first compound 0.05 µM), 0.453; with Alisertib + Olaparib (first compound 0.1581 µM), 0.452; with Alisertib + Olaparib (first compound 0.5 µM), 0.437; with Alisertib + Pemetrexed (first compound 0.005 µM), 0.743. Also, the relative viability was found to be 1.22 with Alisertib + Pemetrexed (first compound 0.01581 µM), 0.989 with Alisertib + Pemetrexed (first compound 0.05 µM), 0.637 in the test with Alisertib + Pemetrexed (first compound 0.1581 µM) and 0.516 with Alisertib + Pemetrexed (first compound 0.5 µM).

Regarding NCI-H727, the relative viability in the test with Alisertib + Bortezomib (first compound 0.005 µM) turned out to be 0.796; with Alisertib + Bortezomib (first compound 0.01581 µM), 0.795; with Alisertib + Bortezomib (first compound 0.05 µM) it was 0.46; with Alisertib + Bortezomib (first compound 0.1581 µM), 0.329; in the test with Alisertib + Bortezomib (first compound 0.5 µM) it was 0.301; with Alisertib + Olaparib (first compound 0.005 µM), 0.679. Also, the relative viability with Alisertib + Olaparib (first compound 0.01581 µM) was 0.624; with Alisertib + Olaparib (first compound 0.05 µM), 0.556; with Alisertib + Olaparib (first compound 0.1581 µM), 0.518; with Alisertib + Olaparib (first compound 0.5 µM), 0.465; with Alisertib + Alpelisib (first compound 0.005 µM), 0.663; with Alisertib + Alpelisib (first compound 0.01581 µM), 0.515. For the same cell line, the relative viability came to 0.434 with Alisertib + Alpelisib (first compound 0.05 µM), 0.302 in the test with Alisertib + Alpelisib (first compound 0.1581 µM) and 0.244 in the test with Alisertib + Alpelisib (first compound 0.5 µM).
